One test concerns TSCs. It counts as cell-based, mouse. The settings on record: 7 days.
The subject of test [1] is mitochondrial membrane potential (ΔΨm).
Procedure: Mitochondrial staining by MitoTracker dye. TSC were cultured at different O2 levels at least 24 hr stained with DAPI (D21490, Invitrogen) alone or with either MitoTracker Red FM (Invitrogen), TMRM (T668), or JC-1 (T3168, Invitrogen) alone or with the uncoupler FCCP (Sigma), and analyzed under a DM-IRE2 fluorescence microscope (Leica, Germany) using Simple PCI image acquisition software (Hamamatsu, Sewickley, PA).
In more detail, TSC were cultured on coverslips in 12-well plates at different O2 levels either with or without FGF4, for 48 hr. Before experiments were conducted at low O2 tension, TSC were adapted in a hypoxia chamber (Billups-Rothenberg, CA) at the given O2 level described above for at least 24 hr. Nuclear dye 2.5 μg/ml DAPI (D21490, Invitrogen) was applied as a counterstain 1 hr before TSC were incubated alone with either 50 nM MitoTracker Red FM (M22425m, Invitrogen) for 30 min, 20 nM TMRM (T668) for 30 min, or 3.25 nM JC-1 (T3168, Invitrogen) for 45 min, or in combination with the uncoupler FCCP (1 nM, Sigma, C2920). After staining, the TSC were washed with PBS 2 times and immediately analyzed under a DM-IRE2 fluorescence microscope (Leica, Germany) using Simple PCI image acquisition software (Hamamatsu, Sewickley, PA).
The roles of FGF4 and O2 on Δψm associated with ATP production was determined. […]
The target in another test is T1, AKT (Mus musculus, UniProt P31750).
T1 construct: endogenous in cells; host or cells: mESC-D3 (ATCC)
The experiment in a line: phospho-AKT western blot in mESCs under 200 mM sorbitol. The settings on record: mESCs, 4 hr, 200 mM sorbitol. The format is cell-based. Here is the method:
(§1) FIG. 14. […] Blots are representative of triplicate experiments. Phospho-proteins and their loading controls are grouped between black lines.
(§2) FIG. 15. […] Blots are representative of triplicate experiments.
(§3) Hyperosmotic activation of signaling enzymes. […] Zhong, 2010; Xie, 2011. […] To determine the kinetics of activation of these five kinases in the described system, mESCs were treated with 200 mM sorbitol for 1 hr. Expression levels of the activated (i.e., phosphorylated) enzymes were assayed by western blot analysis (FIG. 14), including phospho-p38MAPK, phospho-JNK, phospho-MEK1/2, and phospho-AKT (the downstream effector of PI3K signaling).
(§4) Efficacy of enzyme inhibitors.
A general note: A western blot detects proteins with antibodies after separation by electrophoresis.

Test [2] concerns Oct4, Nanog, and Rex1 protein in mESCs. The experiment in a line: Proteasome inhibitor effects on Oct4, Nanog, and Rex1 during sorbitol stimulation of mESCs. Particulars: 4 hr; for stress-induced loss of Oct4, Nanog, and Rex1: 200 mM sorbitol. The format is cell-based, mouse. Here is the method:
FIG. 17. MG132 proteasome inhibitor effects on Oct4, Nanog, and Rex1 during sorbitol stimulation of mESCs. mESCs were treated for 4 hr with 0 or 200 mM sorbitol±10 μM MG132 and then lysed.
FIGS. 18A-18D. Lactacystin effects on Oct4, Nanog, Rex1 during sorbitol stimulation of mESCs. mESCs were treated for 4 hr±200 mM sorbitol±25, 50 μM lactacystin, then photographed before lysing. […] ANOVA+Student-Newman-Keuls post hoc tests, Oct4 p=0.000; Nanog p=0.035; Rex1 p=0.11. FIG. 18D) mESCs were stressed with or without lactacystin and micrographs were taken at 100×. Scale bar=50 μm.
Hyperosmotic-stress-induced loss of potency TFs due to proteasomal degradation. To determine the mechanism of TF protein loss during stress, mESCs were treated with one of two proteasome inhibitors, MG132 (FIG. 17) and lactacystin (FIGS. 18A-18D). […] Oct4 loss was reversed by 75%, Nanog by 93%, and Rex1 by 310% in 4 hr of proteasome inhibition by MG132.

The test system of test [3] is Oct4, Nanog, and Rex1 expression in mESC. The experiment in a line: TF expression levels during hyperosmotic stress +/- enzyme inhibition in mESC monolayer culture (western blot).
Procedure: Histograms show relative expression of each protein when normalized to amido black expression. Error flags represent standard error of the mean (n≥3). “*” denotes significant difference from unstressed mESCs. “a” indicates significant difference from stress-only time point. ANOVA and Student-Newman-Keuls post hoc tests (P<0.05).
(FIG. 20A) mESCs were incubated±200 mM sorbitol for 0-24 hr and ±p38 inhibitor SB202190 (10 μM). mESCs were lysed, and proteins were fractionated using SDS-PAGE, blotted, and probed for Oct4 or Nanog. (FIG. 20B) Phase micrographs of mESCs following 24 hr of culture in the presence/absence of stress and p38MAPK inhibitor, SB202190. Scale bars=50 μm. (FIG. 20C) mESCs were incubated±200 mM sorbitol for 0-24 hr±either U0126 or LY294002 (25 μM). mESCs were lysed and proteins were fractionated using SDS-PAGE, blotted, and probed for Oct4 or Nanog. Histograms show relative expression of each protein when normalized to amido black expression. Error flags represent standard error of the mean (n≥3). “*” denotes significant difference from unstressed mESCs. “a” indicates significant difference from stress-only time point. ANOVA and Student-Newman-Keuls post hoc tests (P<0.05).
(FIG. 21A) mESCs were incubated±200 mM sorbitol for 0-24 hr±(A) p38MAPK inhibitor SB202190 (10 μM) or PI3K inhibitor LY294002 (25 μM); or JNK inhibitor L-JNKi-1 (2 μM). mESCs were lysed, and proteins were fractionated using SDS-PAGE, blotted, and probed for Rex1. Histograms show relative expression of each protein when normalized to amido black expression. Error flags represent standard error of the mean (n≥3). “*” denotes significant difference from unstressed mESCs. “a” indicates significant difference from stress-only time point. ANOVA and Student-Newman-Keuls post hoc tests (P<0.05). (FIG. 21B) To test the reversibility of the Rex1 loss during sorbitol stress, mESCs were incubated−200 mM sorbitol for 0-4 hr and then sorbitol was removed from some dishes for the remaining 20 hr (lane 5). Histogram is representative of two independent experiments.
Cell culture and stimulation. mESC-D3 cells (ATCC, Manassas, VA) were cultured in the absence of feeder cells in Dulbecco's modified Eagle's medium (Gibco, Grand Island, NY) supplemented with 15% mESC-screened fetal bovine serum (HyClone, Logan, UT), 2 mM L-glutamine, 1 mM sodium pyruvate, 1 mM nonessential amino acids, 0.1 mM 2-mercaptoethanol (Sigma), and 1,000 U/mL murine leukemia inhibitory factor (LIF; Millipore, Temecula, CA) on 0.1% gelatin-coated dishes at 37° C. in humidified air with 5% CO2. […] Osmolality was determined by freezing point depression using Advanced Instruments Wide Range Osmometer 3W2 (Advanced Instruments, Norwood, MA).
Enzyme inhibition. Enzyme inhibitors were chosen according to the specificity reported in the kinase inhibitor literature. […] Inhibitor concentrations were determined following dose response experiments for each inhibitor based on the range of concentrations determined from the mESC and kinase inhibitor literature.
For test [4] the test system is unchanged. The experiment in a line: Inhibitor only effects on Oct4, Nanog, and Rex1 expression (western blot). The format is cell-based, mouse.
In the next test the test system is ERK1/2. The experiment in a line: phospho-ERK1/2 western blot in mESCs under 200 mM sorbitol.
Another test concerns the target p38MAPK (Mus musculus, UniProt P47811). The experiment in a line: phospho-p38 western blot in mESCs under 200 mM sorbitol. It counts as cell-based. Here is the method: as §1, §2, §3, §4
The test system of test [5] is Trophoblast stem cells (TSCs). The experiment in a line: qPCR of lineage and multipotency markers in TSCs with or without SAPK inhibitors at 20, 2 or 0.5% O2. The format is cell-based, mouse. Particulars: TSCs + FGF4, 0.5-20% O2. Here is the method: FIGS. 1A-1C. SAPK mediates decreased Gcm1 and Tpbpa and increased Hand1 at all O2 levels. There are greater effects as O2 deviates from the stemness optimum of 2% O2. Trophoblast stem cells (TSCs) were passaged and cultured at 20, 2, or 0.5% O2 overnight. FGF4 was replenished the next day at time zero, and SAPK inhibitor SP600125 (10 μm or 50 μM) was co-incubated with TSCs for 2 days at the indicated O2 levels±SP600125. Markers were quantitated using qPCR. (FIG. 1B) is a graph derived from data in (FIG. 1A), where the highest inhibited group was subtracted from the uninhibited group at each O2 level (the subtracted difference is shown as a color inset in the histogram bars of highest expression of each marker). […]
FIG. 2. […] RNA was isolated and quantitated using qPCR.
Cell lines and culture conditions. […] Quantitative removal of gas phase O2 requires 30 min in anaerobic bags, i.e., there was only a minimal period when 20% O2 was ambient to media that was pre-equilibrated under 0, 0.5, or 2% O2. […]
RNA isolation and quantitative reverse transcription-PCR (qRT-PCR). […] Briefly, DNase-treated total RNA was isolated following cDNA preparation using QuantiTect Reverse Transcription Kit […] (Qiagen). […]
In general terms: Real-time PCR tracks product formation cycle by cycle.

Where [6] appears, read: 4 hr, 200 mM sorbitol + PD98059.
Where [7] appears, read: 20% O2, FGF4 removed, sublethal concentration.

Where two headings read alike, the source gives them in different places. Where a SMILES comes first, the peptide text is derived from it. The star is where a group is joined. Cbz = O=C(OCc1ccccc1)*

Sequence of p38MAPK (P47811 whole entry): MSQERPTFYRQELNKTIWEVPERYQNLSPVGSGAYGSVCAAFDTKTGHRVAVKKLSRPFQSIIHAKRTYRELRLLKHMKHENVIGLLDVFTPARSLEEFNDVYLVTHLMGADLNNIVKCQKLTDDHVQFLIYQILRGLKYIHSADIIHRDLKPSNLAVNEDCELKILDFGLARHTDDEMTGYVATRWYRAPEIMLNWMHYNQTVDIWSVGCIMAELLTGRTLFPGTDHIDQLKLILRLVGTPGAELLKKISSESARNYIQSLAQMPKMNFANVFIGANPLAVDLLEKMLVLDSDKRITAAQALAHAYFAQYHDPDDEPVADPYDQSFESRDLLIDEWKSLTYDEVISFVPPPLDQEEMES
T1 sequence (P31750 whole entry): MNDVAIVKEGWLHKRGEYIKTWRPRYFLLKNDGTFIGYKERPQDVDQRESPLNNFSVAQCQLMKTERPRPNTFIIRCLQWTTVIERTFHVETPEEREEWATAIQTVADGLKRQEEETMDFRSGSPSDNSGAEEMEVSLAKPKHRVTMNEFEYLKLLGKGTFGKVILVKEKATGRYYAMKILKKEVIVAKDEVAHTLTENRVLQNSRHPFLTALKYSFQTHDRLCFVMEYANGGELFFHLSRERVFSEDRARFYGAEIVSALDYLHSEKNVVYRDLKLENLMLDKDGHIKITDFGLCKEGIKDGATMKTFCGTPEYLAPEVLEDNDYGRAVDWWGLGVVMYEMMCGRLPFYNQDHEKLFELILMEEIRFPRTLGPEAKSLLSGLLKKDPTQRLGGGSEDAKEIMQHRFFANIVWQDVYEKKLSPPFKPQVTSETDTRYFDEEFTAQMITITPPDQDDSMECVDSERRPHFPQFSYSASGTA
Procedure for ERK1/2: Cells were lysed and proteins were fractionated using SDS-PAGE, blotted, and probed for phospho-p38 (Thr180/Tyr182), phospho-JNK (Thr183/Tyr185), phospho-ERK1/2 (Thr202/Tyr204), or phospho-AKT (Ser473). Blots are representative of triplicate experiments.
Western blot analysis. Sodium dodecyl sulfate-polyacrylamide gel electrophoresis and western immunoblot analysis of mESC lysates were performed as previously described. […] Cells were harvested with cold lysis buffer (Cell Signaling) and protein was quantified by BCA assay (Pierce, Rockford, IL). Ten to twenty micrograms of aliquots were fractionated on 10% polyacrylamide precast gels (Bio-Rad, Hercules, CA), transferred to nitrocellulose membranes (Amersham Biosciences, Aylesbury, UK), probed overnight with primary antibodies, and developed as previously described. […] Protein bands were visualized using the ECL Advance Western Blotting Detection Kit (GE Healthcare, Waukesha, WI), blot was scanned to obtain an electronic image, and intensity of protein bands was quantified using Image J analysis software (rsbweb.nih.gov) and normalized to amido black staining. […] Data are expressed as the change in expression relative to no treatment at time zero.

Turning to `O=C(O)C(Cl)Cl` [DCA, dichloroacetate], in the test with TSCs (2% O2), the “PL2 mRNA increase” value stood at 2 fold and the “synTa mRNA increase” value is given as 2 fold.
In the case of `N#CC(C#N)=NNc1ccc(OC(F)(F)F)cc1` [FCCP, Carbonyl cyanide 4-(trifluoromethoxy)phenylhydrazone], in test [1], the JC1 stain fluorescence result was “no fluorescence” and the “effect on Δψm” value was “completely depolarizes”.
Take `O=c1cc(N2CCOCC2)oc2c(-c3ccccc3)cccc12` [LY294002]: the “inhibition of AKT activation (average)” value at AKT is 88%.
Take `CC(C)C[C@@H](C=O)NC(=O)[C@H](CC(C)C)NC(=O)[C@H](CC(C)C)NC(=O)OCc1ccccc1` [MG132] (Cbz-Leu-Leu-Leu-aldehyde): in test [2] (10 μM MG132, 200 mM sorbitol), the “reversal of stress-induced Nanog loss” value came to 93%, the “reversal of stress-induced Oct4 loss” value is reported as 75% and the “reversal of stress-induced Rex1 loss” value is given as 310%. The “stress-induced loss of Oct4, Nanog, and Rex1” value in [2] is on record as “prevented”.
As for `COc1cccc(-c2cc(=O)c3ccccc3o2)c1N` [PD98059], in test [3] (setting [6]), the “Nanog expression relative to unstressed level” value is listed as 2.5 times; the “expression of Oct4 and Rex1” value was “remained at the unstressed baseline”. Also, the Oct4 recovery result in test [3] (24 hr, 200 mM sorbitol + inhibitor) was “did not prevent”. The “Nanog protein expression, inhibitor only” value in test [4] (24 hr inhibitor only, vs 24 hr no inhibitor, AKTi 10, LY294002 10, L-JNKi-1 2, SB202190 10, U0126 40, PD98059 20 μM) is “*1.54 ± 0.10%”. The “inhibition of ERK1/2 activation (average)” value in the test on ERK1/2 (mESCs, 4 hr, 200 mM sorbitol) came to 30%.
For the molecule `Oc1ccc(-c2nc(-c3ccncc3)c(-c3ccc(F)cc3)[nH]2)cc1` [SB202190], the Nanog expression in [3] (24 hr ongoing stress, 200 mM sorbitol + SB202190) worked out at 10%. Besides, in [3] (24 hr, 200 mM sorbitol + SB202190, did not recover from 4-h nadir), the Oct4 expression is 50 % of unstressed levels. Further, the “inhibition of p38MAPK activation (average)” value against p38MAPK was 60%.
As for `Oc1c2ccccc2c2c3c(cccc13)N=N2` [SP600125], the “multipotency factors Cdx2, Id2, Errβ mRNA” value in test [5] is recorded as “no effect”.
As for `N#CC(=C(/N)Sc1ccccc1N)/C(C#N)=C(\N)Sc1ccccc1N` [U0126], in test [3], the “Oct4 or Nanog loss during stress” value is “did not prevent”, the Oct4 recovery entry is listed as “prevented” and the Rex1 expression result is given as “remained at unstressed levels”. Besides, in test [4], the “Nanog protein expression, inhibitor only” value turned out to be 0.94 ± 0.15%; the “Oct4 protein expression, inhibitor only” value amounted to 1.16 ± 0.31%; the “Rex1 protein expression, inhibitor only” value is given as 0.72 ± 0.06%. For the same molecule, the “inhibition of ERK1/2 activation (average)” value in the test on ERK1/2 came out at 87%.
As to `CC(=O)N[C@@H](CSC(=O)[C@]1([C@@H](O)C(C)C)NC(=O)[C@H](C)[C@@H]1O)C(=O)O` [lactacystin], the “stress-induced loss of Oct4, Nanog, and Rex1” value in test [2] was “prevented”.
As to antimycin A, in the test with TSCs (setting [7]), the “Ctsq mRNA inhibited” value is given as 81%, the “PL2 mRNA inhibited” value was found to be 98% and the “synTa mRNA inhibited” value turned out to be 42%.

Values taken from patent publication US20250154611A1, “SYSTEMS AND METHODS TO DETECT STEM CELL STRESS AND USES THEREOF” (Wayne State University, priority 2014, published 2025).
